Results taken from article PMC6010047, “Design, synthesis and biological evaluation of novel hydroxy-phenyl-1H-benzimidazoles as radical scavengers and UV-protective agents” (Journal of Enzyme Inhibition and Medicinal Chemistry, 2017).
Like-named read-outs stand apart in the source and are kept apart here.

Key:
[1] = 1,1-Diphenyl-2-picryl-hydrazyl radical (DPPH) assay; assay type: biochemical; conditions: Trolox equivalents; mean ± SE of three experiments
Protocol: To 1.5 mL DPPH methanolic solution (0.5 mM) was added 0.750 mL of sample solution proper diluted. Samples absorbance measurements were evaluated with a UV-VIS spectrophotometer (Thermo Spectronic Helios γ, Cambridge, UK) at fixed wavelength of 517 nm. Blank sample was prepared adding methanol to DPPH solution and Trolox was used as standard reference to achieve a calibration curve. The radical-scavenging activity is expressed as inhibition ratio of initial concentration of DPPH radical and is calculated according to the formula: Inhibition percentage (Ip) = [(AB-As)/AB]·100; where AB and As are, respectively, the absorbance values of blank reaction and of the tested sample[25].

[2] = Ferric reducing antioxidant of potency (FRAP) assay; assay type: biochemical; conditions: Trolox equivalents; mean ± SE of three experiments
Protocol: The ferric reducing ability of each standard solution was measured according to a modified protocol described by Guihua et al.[26]. The reagent for analysis was freshly prepared by mixing the following solutions in the reported ratio 10/1/1 (v:v:v) (i) 0.1 M acetate buffer pH 3.6, (ii) TPTZ (2,4,6-Tri(2-pyridyl)-s-triazine) 10 mmol/L in 40 mmol/HCl, (iii) ferric chloride 20 mmol/L. To a 1.9 mL of reagent were added 0.1 mL of sample proper diluted or solvent when blank was performed. Readings at fixed wavelength of the absorption maximum (593 nm) were done after 30 min, using a UV-VIS spectrophotometer; it was evaluated the absorbance increase of sample solution against the absorbance of blank reaction as parameter to calculate the antioxidant activity. The antioxidant activity is given as Trolox activity since this standard was used to perform the calibration curves.

[3] = Photochemiluminescence (PCL) method, ACL kit; assay type: biochemical; conditions: pure compound; Trolox equivalents; mean ± SE of three experiments
Protocol: (§1) PCL assay, based on the methodology of Popov and Lewin[23], was used to measure the antioxidant activity of synthesized compounds with a Photochem® apparatus (Analytik Jena, Leipzig, Germany) against superoxide anion radicals generated from luminol, a photosensitizer, when exposed to UV light (Double Bore® phosphor lamp, output 351 nm, 3 mWatt/cm^2). The antioxidant activity was measured using ACL (Antioxidant Capacity of Liposoluble substance) kit provided by the manufacturer designed to measure the antioxidant activity of lipophilic compounds[24]. […] The areas under the curves were calculated using the PCLsoft control and analysis software. […] This inhibition was used as a parameter for quantification and related to the decrease in the integral of PCL intensities caused by varying concentrations of Trolox. The observed inhibition of the signal was plotted against the concentration of Trolox added to the assay medium. The concentration of the added tested compounds was such that the generated luminescence during the 180-s sampling interval fell within the limits of the standard curve. The antioxidant assay was carried out in triplicate for each sample, and 20 μL of the diluted compound in HPLC-grade methanol (ACL) was sufficient to correspond to the standard curve.

[4] = UV spectra: λmax and molar extinction coefficient; assay type: physicochemical; conditions: for λ max: aqueous solution at pH 7; for ɛ (molar extinction coefficient): aqueous solution at pH 7, at λ max, linear regression Lambert–Beer
Protocol: Sun protection factor (SPF) is related to the UV absorption of the substances, so before including the molecules in cosmetic formulations we evaluated the wavelength of maximum absorption (λmax) and the molar extinction coefficient (ɛ) of each molecule in aqueous solution at pH 7. The UV spectra were recorded between 270 and 420 nm (20 nm higher and lower then UVA and UVB range) to verify the spectrum profile of the molecules within UVA and UVB region. UV spectrum of PBSA is an UVB filter and presents a λmax of 302 nm; after this peak, the absorbance fades going to higher wavelength until almost zero around 325 nm, and then, it provides no absorption in the UVA region. Molecules spectra overlapped for category according to the substituent in position 5 of the benzimidazole ring are shown in Figures 1, 2 and 3; PBSA spectrum is presented in all figures for comparison.
From the spectra appears that the lambda maxima (Table 2) of the new molecules shifted toward higher wavelength and in general the range of absorption curve was wider than PBSA. Within a group of molecules, the batochromic shift was more marked for the molecules that have a hydroxyl moiety in position 2 of the phenyl ring (4, 5, 6, 9, 10, 11, 13 and […]); the effect of ortho substituted is known to produce this shift toward higher wavelength. Increasing the number of auxochrome groups on phenyl ring an increment in the absorption range occurred, compounds with three hydroxyl on the phenyl ring (6, 11, 15) had the broadest spectrum and their lambda maxima shifted at the highest wavelength compared to the other compounds. The absorption spectrum of molecules with the same number and position of hydroxyl seemed only slightly influenced by the substituent in position 5 of the benzimidazole ring. After having established the lambda maxima for every compound, solutions at different concentrations were prepared to calculate the molar extinction coefficient by means of linear regression and applying Lambert–Beer equation (Table 2).

[5] = PCL antioxidant activity of finished formulations; assay type: biochemical; conditions: 3% (w/w) compound in O/W formulation
Protocol: as §1
It was decided to use a standard formulation oil in water (O/W).
In particular, molecules with phenolic hydroxyl in the ortho position on the phenyl ring (4, 5, 9, 10 and 13) had better and higher UVA/UVB ratio and critical wavelength, although they have the SPF value less than lead compound. Formulation containing products 2 and 14, which have a phenolic hydroxyl at the para position on the phenyl ring, have shown good values in terms of SPF, greater UVA protection factor, critical wavelength and also higher UVA/UVB ratio than PBSA, but yet lower than the molecules containing hydroxyl on the phenyl ring in ortho. […] Compound 8 has lower SPF than 3, but higher than PBSA; in comparison with 3, molecules 8 and 12 presented higher UVA/UVB ratio and critical wavelength. Regarding compounds with three hydroxyls on phenyl ring, they have good UVA filtering parameters, their critical wavelengths are the highest and SPF is higher than PBSA for molecule 6, while SPF of 15 is slightly lower and decreases further in molecule 11. Thus, it can be observed that parameters are mainly influenced by the number and position of the hydroxyl groups on the phenyl ring rather than the substituent in the 5-position of benzimidazole. Concomitantly, all formulations were analyzed to assess whether the antioxidant power was maintained. […] In Table 4, the antioxidant activity, measured by PCL method, of finished formulations is reported; as it can be seen results were in agreement with that obtained testing the pure compounds. […] Formulations containing compounds 3, 8 and 12 presented highest antioxidant capabilities; these are followed, but with important decrease in antioxidant capacity, by formulations with compounds 6, […] and 15 that have three hydroxyl moieties on phenyl ring.

[6] = Cytotoxicity, MTT test, 72 h; conditions: human, NCTC-2544 keratinocytes (immortalized, nontumorigenic)
Protocol: (§2) An immortalized, nontumorigenic cell line of human keratinocytes (NCTC-2544) was grown in a DMEM medium (Sigma-Aldrich Milan, Italy), supplemented with 115 units/mL of penicillin G, 115 μg/mL streptomycin, and 10% fetal calf serum (Invitrogen, Milan, Italy). Individual wells of a 96-well tissue culture microtiter plates (Falcon, Becton–Dickinson) were inoculated with 100 μL of complete medium containing 5 × 10^3 NCTC-2544. The plates were incubated at 37 °C in a humidified (5% CO2) incubator for 18 h prior to the experiments.
After medium removal, 100 μL of the drug solution, dissolved in DMSO and diluted in DMEM medium, was added to each well, incubated at 37 °C for 72 h. Final DMSO concentration never exceeded 0.5%. Cell viability was assayed by the MTT (3–(4,5-dimethylthiazol-2-yl)-2,5 diphenyl tetrazolium bromide) test as previously described by Mosmann[27].
The tests were conducted using a specific cell line of human keratinocytes (NCTC-2544). To assess cell viability, in the presence of the study compounds, before and after the irradiation, the MTT assay was performed[27]. The cytotoxicity was checked after 72 h from the incubation of the keratinocytes with compounds; moreover, the same experiments were performed in the presence of the parent PBSA.

NCTC-2544 cells = test: Phototoxicity / cellular photoprotection, UVA or UVB irradiation, MTT test; conditions: for viability at 50 µM: Homo sapiens, NCTC-2544, light or radiation study, 48 h; for phototoxic effect (cell survival vs irradiated control): NCTC-2544, UVA/UVB irradiation; for cell survival in relation to the irradiated control: after UVB irradiation 1 J/cm^2
Protocol: as §2
Two HPW 125 Philips lamps, mainly emitting at 365 nm, were used for UVA irradiation experiments. The spectral irradiance of the source was 4.0 mWcm^−^2 as measured at the sample level by a Cole-Parmer Instrument Company radiometer (Niles, IL) equipped with a 365-CX sensor. One or two PL-S 9 W/12 Philips lamps (280–370 nm; peak at 315 nm) were used for UVB irradiation experiments. To restrict the incident radiation to the range 305–370 nm, a glass filter (Schott SWG-305) was used. Total energy was detected by the same equipped with a sensor (model CX-312).
After medium removal, 100 μL of the drug solution, dissolved in DMSO and diluted with Hank’s Balanced Salt Solution (HBSS pH =7.2), was added to each well, incubated at 37 °C for 30 min, and then irradiated (20 J/cm^2 for UVA and 0.5 and 1 J/cm^2 for UVB). After irradiation, the solution was replaced with the medium and the plates were further incubated for 48 h. Cell viability was assayed by the MTT [(3–(4,5-dimethylthiazol-2-yl)-2,5 diphenyl tetrazolium bromide)] test as previously described by Mosmann[27].
Molecules were verified for their photocytotoxicity in the same cell line; the cells were treated with 50 μM solutions of compound and after 30 min were irradiated with 20 J/cm^2 UVA or with UVB at two energy amounts: 0.5 J/cm^2 and 1 J/cm^2 UVB. […] After irradiation, the solution was replaced with growth medium and the cells were further incubated for 48 h, and then, cell viability was assessed by MTT assay. […] The phototoxicity of tested molecules was compared with the ratio of cell survival of irradiated keratinocytes without substance (IC = irradiated control).

[7] = read-out: % Cell survival UVA 20 J/cm^2
[8] = read-out: % Cell survival UVB 0.5 J/cm^2
[9] = read-out: % Cell survival UVB 1 J/cm^2

| SMILES | λ max [4] | ɛ (molar extinction coefficient) [4] | DPPH [1] | FRAP [2] | PCL [3] | PCL of finished formulation [5] | IC50 at 72 h [6] | viability at 50 µM (NCTC-2544 cells; [7]) | viability at 50 µM (NCTC-2544 cells; [8]) | viability at 50 µM (NCTC-2544 cells; [9]) | phototoxic effect (cell survival vs irradiated control) (NCTC-2544 cells) | cell survival in relation to the irradiated control (NCTC-2544 cells) |
| --- | --- | --- | --- | --- | --- | --- | --- | --- | --- | --- | --- | --- |
| O=C(O)c1ccc2[nH]c(-c3ccc(O)c(O)c3)nc2c1 [Compound 12, 2-(3,4-Dihydroxy-phenyl)-1H-benzimidazole-5-carboxylic acid] | 317 nm | 21 000 | 1771.82 ± 84.75 μmolTrolox/mmol | 2433.28 ± 21.74 μmolTrolox/mmol | 13174.31 ± 240.68 μmolTrolox/mmol | 1373.39 ± 19.43 μmol Trolox/g formulation | > 50 µM | 74.3 ± 2% | 76.3 ± 3.6% | 64.5 ± 3.5% | – | doubled |
| O=C(O)c1ccc2[nH]c(-c3ccc(O)cc3)nc2c1 [Compound 14, 2-(4-Hydroxy-phenyl)-1H-benzimidazole-5-carboxylic acid] | 312 nm | 24 000 | 1.185 ± 0.02 μmolTrolox/mmol | 2.62 ± 0.06 μmolTrolox/mmol | 6.98 ± 0.27 μmolTrolox/mmol | 0.16 ± 0.02 μmol Trolox/g formulation | > 50 µM | 76.7 ± 3.4% | 74.2 ± 3.4% | 58.4 ± 2.5% | – | doubled |
| O=C(O)c1ccc2[nH]c(-c3ccc(O)c(O)c3O)nc2c1 [Compound 15, 2-(2,3,4-Trihydroxy-phenyl)-1H-benzimidazole-5-carboxylic acid] | 332 nm | 17 000 | 1241.03 ± 9.43 μmolTrolox/mmol | 2355.15 ± 52.55 μmolTrolox/mmol | 1515.65 ± 75.56 μmolTrolox/mmol | 86.99 ± 6.95 μmol Trolox/g formulation | > 50 µM | 12.2 ± 1.3% | 60.1 ± 2.3% | 25.6 ± 2.7% | phototoxic effect | – |

Continued, in another order:

| λ max [4] | ɛ (molar extinction coefficient) [4] | SMILES | DPPH [1] | FRAP [2] | PCL [3] | PCL of finished formulation [5] | IC50 at 72 h [6] | viability at 50 µM (NCTC-2544 cells; [7]) | viability at 50 µM (NCTC-2544 cells; [8]) | viability at 50 µM (NCTC-2544 cells; [9]) | phototoxic effect (cell survival vs irradiated control) (NCTC-2544 cells) | cell survival in relation to the irradiated control (NCTC-2544 cells) |
| --- | --- | --- | --- | --- | --- | --- | --- | --- | --- | --- | --- | --- |
| 325 nm | 12 000 | Oc1ccc(-c2nc3ccccc3[nH]2)c(O)c1O [Compound 11, 2-(2,3,4-Trihydroxy-phenyl)-1H-benzimidazole] | 1811.02 ± 61.7 μmolTrolox/mmol | 2723.19 ± 35.74 μmolTrolox/mmol | 1614.675 ± 19.95 μmolTrolox/mmol | 153.35 ± 8.14 μmol Trolox/g formulation | > 50 µM | 1.2 ± 0.2% | 45.6 ± 2.6% | 27 ± 2.4% | phototoxic effect | – |
| 321 nm | 20 000 | O=C(O)c1ccc2[nH]c(-c3ccc(O)cc3O)nc2c1 [Compound 13, 2-(2,4-Dihydroxy-phenyl)-1H-benzimidazole-5-carboxylic acid] | 32.48 ± 2.38 μmolTrolox/mmol | 31.63 ± 1.96 μmolTrolox/mmol | 160.26 ± 4.09 μmolTrolox/mmol | 4.97 ± 0.17 μmol Trolox/g formulation | > 50 µM | 80.7 ± 1.3% | 69 ± 0.2% | 57.5 ± 2.4% | – | doubled |
